Assay results taken from PubChem BioAssay (NCI).
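These data come from cells grown in 96-well plates and exposed to compound for 48 hours at five concentrations. At the GI50, growth is halved. TGI: concentration producing complete growth inhibition.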

What was measured:
Test in all cases: inhibition of tumour cell growth, NCI panel, 48 h
SNB-19 CNS = tested on: SNB-19 CNS
MOLT-4 leukemia = tested on: MOLT-4 leukemia
LOX IMVI melanoma = tested on: LOX IMVI melanoma
RPMI-8226 leukemia = tested on: RPMI-8226 leukemia
NCI-H226 lung = tested on: NCI-H226 lung
MDA-MB-435 = tested on: MDA-MB-435
UACC-62 melanoma = tested on: UACC-62 melanoma
SF-268 CNS = tested on: SF-268 CNS
UACC-257 melanoma = tested on: UACC-257 melanoma
NCI/ADR-RES ovarian = tested on: NCI/ADR-RES ovarian
HOP-92 NSCLC = tested on: HOP-92 NSCLC
OVCAR-4 ovarian = tested on: OVCAR-4 ovarian
SN12C renal = tested on: SN12C renal
K-562 leukemia = tested on: K-562 leukemia
SK-MEL-2 melanoma = tested on: SK-MEL-2 melanoma
NCI-H460 lung = tested on: NCI-H460 lung
IGROV1 ovarian = tested on: IGROV1 ovarian
RXF 393 renal = tested on: RXF 393 renal
OVCAR-8 ovarian = tested on: OVCAR-8 ovarian
T-47D breast = tested on: T-47D breast
NCI-H522 lung = tested on: NCI-H522 lung
CCRF-CEM leukemia = tested on: CCRF-CEM leukemia
UO-31 renal = tested on: UO-31 renal
HOP-62 NSCLC = tested on: HOP-62 NSCLC
A498 renal = tested on: A498 renal
OVCAR-3 ovarian = tested on: OVCAR-3 ovarian
U251 CNS = tested on: U251 CNS
786-0 renal = tested on: 786-0 renal
HL-60(TB) leukemia = tested on: HL-60(TB) leukemia
OVCAR-5 ovarian = tested on: OVCAR-5 ovarian
MALME-3M melanoma = tested on: MALME-3M melanoma
SW-620 colon = tested on: SW-620 colon
SK-OV-3 ovarian = tested on: SK-OV-3 ovarian
SNB-75 CNS = tested on: SNB-75 CNS
SK-MEL-28 melanoma = tested on: SK-MEL-28 melanoma
SF-539 CNS = tested on: SF-539 CNS
DU-145 prostate = tested on: DU-145 prostate
PC-3 prostate = tested on: PC-3 prostate
SR leukemia = tested on: SR leukemia
HS 578T breast = tested on: HS 578T breast
KM12 colon = tested on: KM12 colon
A549 NSCLC = tested on: A549 NSCLC
NCI-H23 lung = tested on: NCI-H23 lung
MDA-MB-231 breast = tested on: MDA-MB-231 breast
CAKI-1 renal = tested on: CAKI-1 renal
ACHN renal = tested on: ACHN renal
TK-10 renal = tested on: TK-10 renal
EKVX NSCLC = tested on: EKVX NSCLC
HCC-2998 colon = tested on: HCC-2998 colon
MDA-MB-468 breast = tested on: MDA-MB-468 breast
BT-549 breast = tested on: BT-549 breast
HCT-116 colon = tested on: HCT-116 colon
SF-295 CNS = tested on: SF-295 CNS
HCT-15 colon = tested on: HCT-15 colon
MCF7 breast = tested on: MCF7 breast
M14 melanoma = tested on: M14 melanoma

SMILES: COc1ccc(N(C)c2cc(C#N)nc3ccccc23)cc1/C=C/C(=O)NO
- GI50 (SNB-19 CNS): < 0.01 µM
- TGI (SNB-19 CNS): 15.1 µM
- GI50 (MOLT-4 leukemia): < 0.01 µM
- TGI (MOLT-4 leukemia): > 35.9 µM
- GI50 (LOX IMVI melanoma): < 0.01 µM
- TGI (LOX IMVI melanoma): 1.4 µM
- GI50 (RPMI-8226 leukemia): < 0.01 µM
- TGI (RPMI-8226 leukemia): 19.2 µM
- GI50 (NCI-H226 lung): < 0.01 µM
- TGI (NCI-H226 lung): 5.82 µM
- GI50 (MDA-MB-435): < 0.01 µM
- TGI (MDA-MB-435): < 0.01 µM
- GI50 (UACC-62 melanoma): < 0.01 µM
- TGI (UACC-62 melanoma): 2.1 µM
- GI50 (SF-268 CNS): < 0.01 µM
- TGI (SF-268 CNS): 14.2 µM
- GI50 (UACC-257 melanoma): 1.68 µM
- TGI (UACC-257 melanoma): 20.3 µM
- GI50 (NCI/ADR-RES ovarian): < 0.01 µM
- TGI (NCI/ADR-RES ovarian): < 0.01 µM
- TGI (HOP-92 NSCLC): 9.06 µM
- GI50 (OVCAR-4 ovarian): 1.19 µM
- TGI (OVCAR-4 ovarian): 16.9 µM
- GI50 (SN12C renal): < 0.01 µM
- TGI (SN12C renal): 5.95 µM
- GI50 (K-562 leukemia): < 0.01 µM
- TGI (K-562 leukemia): > 40.3 µM
- GI50 (SK-MEL-2 melanoma): < 0.01 µM
- TGI (SK-MEL-2 melanoma): 0.63 µM
- GI50 (NCI-H460 lung): < 0.01 µM
- TGI (NCI-H460 lung): 3.65 µM
- GI50 (IGROV1 ovarian): < 0.01 µM
- TGI (IGROV1 ovarian): 4.55 µM
- GI50 (RXF 393 renal): < 0.0435 µM
- TGI (RXF 393 renal): 3.83 µM
- GI50 (OVCAR-8 ovarian): < 0.01 µM
- GI50 (T-47D breast): 2.34 µM
- TGI (T-47D breast): 80.1 µM
- GI50 (NCI-H522 lung): < 0.01 µM
- TGI (NCI-H522 lung): < 0.01 µM
- GI50 (CCRF-CEM leukemia): < 0.01 µM
- GI50 (UO-31 renal): < 0.01 µM
- TGI (UO-31 renal): 12.1 µM
- GI50 (HOP-62 NSCLC): < 0.01 µM
- TGI (HOP-62 NSCLC): 15.3 µM
- GI50 (A498 renal): 15.7 µM
- TGI (A498 renal): 54.2 µM
- GI50 (OVCAR-3 ovarian): < 0.01 µM
- TGI (OVCAR-3 ovarian): 6.18 µM
- GI50 (U251 CNS): < 0.01 µM
- TGI (U251 CNS): 9.38 µM
- GI50 (786-0 renal): < 0.01 µM
- TGI (786-0 renal): 15 µM
- GI50 (HL-60(TB) leukemia): < 0.01 µM
- TGI (HL-60(TB) leukemia): < 0.01 µM
- GI50 (OVCAR-5 ovarian): < 0.01 µM
- TGI (OVCAR-5 ovarian): 10.7 µM
- GI50 (MALME-3M melanoma): < 0.01 µM
- TGI (MALME-3M melanoma): 8.74 µM
- GI50 (SW-620 colon): < 0.01 µM
- TGI (SW-620 colon): 15.2 µM
- GI50 (SK-OV-3 ovarian): < 0.01 µM
- TGI (SK-OV-3 ovarian): 12.4 µM
- GI50 (SNB-75 CNS): < 0.01 µM
- TGI (SNB-75 CNS): 2.62 µM
- GI50 (SK-MEL-28 melanoma): 0.551 µM
- TGI (SK-MEL-28 melanoma): 3.72 µM
- GI50 (SF-539 CNS): < 0.01 µM
- TGI (SF-539 CNS): < 0.01 µM
- GI50 (DU-145 prostate): < 0.01 µM
- TGI (DU-145 prostate): 16.8 µM
- GI50 (PC-3 prostate): < 0.01 µM
- TGI (PC-3 prostate): > 40.8 µM
- GI50 (SR leukemia): < 0.01 µM
- GI50 (HS 578T breast): < 0.01 µM
- TGI (HS 578T breast): 9.65 µM
- GI50 (KM12 colon): < 0.01 µM
- TGI (KM12 colon): 1.22 µM
- GI50 (A549 NSCLC): < 0.01 µM
- TGI (A549 NSCLC): 22.4 µM
- GI50 (NCI-H23 lung): < 0.01 µM
- TGI (NCI-H23 lung): 1.25 µM
- GI50 (MDA-MB-231 breast): < 0.01 µM
- TGI (MDA-MB-231 breast): < 0.01 µM
- GI50 (CAKI-1 renal): < 0.01 µM
- TGI (CAKI-1 renal): 6.22 µM
- GI50 (ACHN renal): < 0.01 µM
- TGI (ACHN renal): 11.7 µM
- GI50 (TK-10 renal): 2.22 µM
- TGI (TK-10 renal): 57.1 µM
- GI50 (EKVX NSCLC): < 0.01 µM
- TGI (EKVX NSCLC): 13.5 µM
- GI50 (HCC-2998 colon): < 0.01 µM
- TGI (HCC-2998 colon): < 0.01 µM
- GI50 (MDA-MB-468 breast): < 0.01 µM
- TGI (MDA-MB-468 breast): < 0.01 µM
- GI50 (BT-549 breast): < 0.01 µM
- TGI (BT-549 breast): 1.91 µM
- GI50 (HCT-116 colon): < 0.01 µM
- TGI (HCT-116 colon): 1.39 µM
- GI50 (SF-295 CNS): < 0.01 µM
- GI50 (HCT-15 colon): < 0.01 µM
- TGI (HCT-15 colon): 19.7 µM
- GI50 (MCF7 breast): < 0.01 µM
- TGI (MCF7 breast): 17.4 µM
- GI50 (M14 melanoma): < 0.01 µM
- TGI (M14 melanoma): 1.86 µM
